Consider 6 molecules from ChEMBL document CHEMBL6134865, “Rational Design of Methylene Blue-Raloxifene Conjugates for Efficient Breast Tumor Elimination Triggered by ERα Degradation” (J Med Chem, 2025).

The subject of data set [1] is MCF7. Kind of data set: Antitumor activity against human MCF7 cells xenografted in female BALB/c mouse model assessed as tumor growth inhibition at 5 mg/kg, iv measured after 14 days relative to control. It counts as functional. The following applies: MCF7, 336 h, time 14 day, read-out: TGI. Background: Xenograft models place foreign cells or tissue in a host animal.

Data set [2] is described as follows: Toxicity in female BALB/c mouse xenografted with human MCF7 cells assessed as change in ALT level at 5 mg/kg, iv measured after 14 days. It counts as organism-based. The following applies: in vivo, 336 h, time 14 day.
Data set [3] can be described thus: Toxicity in female BALB/c mouse xenografted with human MCF7 cells assessed as change in body weight at 5 mg/kg, iv measured after 14 days. The data set is classed as organism-based. The following applies: in vivo, 336 h, time 14 day.
Data set [4] can be described thus: Toxicity in female BALB/c mouse xenografted with human MCF7 cells assessed as change in blood urea nitrogen level at 5 mg/kg, iv measured after 14 days. It counts as organism-based. The following applies: in vivo, 336 h, time 14 day.
Data set [5] is described as follows: Toxicity in female BALB/c mouse xenografted with human MCF7 cells assessed as change in creatinine level at 5 mg/kg, iv measured after 14 days. It counts as organism-based. The following applies: in vivo, 336 h, time 14 day.
Data set [6] can be described thus: Toxicity in female BALB/c mouse xenografted with human MCF7 cells assessed as change in AST level at 5 mg/kg, iv measured after 14 days. The data set is classed as organism-based. The following applies: in vivo, 336 h, time 14 day.
Data set [7] has as its system MCF7. Nature of the data set: Induction of ROS generation in human MCF7 cells assessed as cell percentage with elevated ROS at 1 uM incubated for 6 hrs followed by irradiation with 660 nm 0.4 W/cm2 light for 2 min by DCFH-DA probe based flow cytometric analysis (reference value: 0.2 %). The data set is classed as functional. The following applies: time 362 min, 6.033 h.

A short description of data set [8]: Induction of ROS generation in water assessed as decrease in ABDA absorption peak at 5 uM irradiated with 660 nm 0.4 W/cm2 light up to 5 mins by ABDA probe based UV-vis absorption spectra analysis. The data set is classed as functional.
A short description of data set [9]: Induction of ROS generation in water at 1 uM irradiated with 660 nm 0.4 W/cm2 light up to 180 sec by DCFH probe based fluorescence spectra analysis. The data set is classed as functional.
Data set [10] relates to MCF7. Kind of data set: cells. The following applies: Homo sapiens, MCF7, light or radiation study.
Description: Antiproliferative activity against human MCF7 cells assessed as inhibition of cell proliferation incubated for 48 hrs with 660 nm 0.4 W/cm2 light irradiation for 2 min at 6th hr of incubation time by MTT assay
Data set [11] relates to MCF7. Nature of the data set: cells. The following applies: Homo sapiens, MCF7, light or radiation study. This is another data set of the same source.
Description: Antiproliferative activity against human MCF7 cells assessed as inhibition of cell proliferation incubated for 48 hrs with 660 nm 0.4 W/cm2 light irradiation for 3 min at 6th hr of incubation time by MTT assay
For data set [12], the system named is MCF7. Nature of the data set: cells. The following applies: Homo sapiens, MCF7, light or radiation study. The source holds these as a separate data set.
Description: Antiproliferative activity against human MCF7 cells assessed as inhibition of cell proliferation incubated for 48 hrs with 660 nm 0.4 W/cm2 light irradiation for 4 min at 6th hr of incubation time by MTT assay
Data set [13] has as its system MCF7. Kind of data set: cells. The following applies: Homo sapiens, MCF7, 48 h.
Description: Antiproliferative activity against human MCF7 cells assessed as inhibition of cell proliferation incubated for 48 hrs by MTT assay
The test system of data set [14] is MCF7. Nature of the data set: cells. The following applies: Homo sapiens, MCF7, light or radiation study. This is another data set of the same source.
Description: Antiproliferative activity against human MCF7 cells assessed as inhibition of cell proliferation incubated for 48 hrs with 660 nm 0.4 W/cm2 light irradiation for 1 min at 6th hr of incubation time by MTT assay
Data set [15] deals with MCF7. Kind of data set: cells. The following applies: Homo sapiens, MCF7, light or radiation study. The source holds these as a separate data set.
Description: Antiproliferative activity against human MCF7 cells assessed as inhibition of cell proliferation incubated for 48 hrs with 660 nm 0.4 W/cm2 light irradiation for 5 min at 6th hr of incubation time by MTT assay
Data set [16] is described as follows: Photothermal effect of compound in water assessed as increase in solution temperature at 0.5 to 10 uM in presence of 660 nm 0.4 W/cm2 light irradiation. The following applies: dose 0.5-10 µM, time <= 5.0 min. It counts as functional.
The nature of data set [17]: Photothermal effect of compound in water assessed as increase in solution temperature measured up to 5 mins in presence of 660 nm 0.4 W/cm2 light irradiation. It counts as functional. The following applies: dose 0.5-10 µM.
The nature of data set [18]: in vivo. The following applies: Sprague-Dawley, rat, po, 15 mg/kg.
Description: AUC (0 to infinity) in Sprague-Dawley rat at 15 mg/kg, po administered via gavage and measured after 0.5 to 168 hrs by LC-MS analysis
Data set [19] can be described thus: in vivo. The following applies: Sprague-Dawley, rat, iv, 5 mg/kg.
Description: Cmax in Sprague-Dawley rat at 5 mg/kg, iv measured after 0.5 to 168 hrs by LC-MS analysis
A short description of data set [20]: in vivo. The following applies: Sprague-Dawley, rat, po, 15 mg/kg. The source holds these as a separate data set.
Description: Cmax in Sprague-Dawley rat at 15 mg/kg, po administered via gavage and measured after 0.5 to 168 hrs by LC-MS analysis
A short description of data set [21]: in vivo. The following applies: Sprague-Dawley, rat, iv, 5 mg/kg. The source holds these as a separate data set.
Description: AUC (0 to infinity) in Sprague-Dawley rat at 5 mg/kg, iv measured after 0.5 to 168 hrs by LC-MS analysis
Data set [22] is described as follows: in vivo. The following applies: Sprague-Dawley, rat, po, 15 mg/kg. This is another data set of the same source.
Description: Tmax in Sprague-Dawley rat at 15 mg/kg, po administered via gavage and measured after 0.5 to 168 hrs by LC-MS analysis
Data set [23] is described as follows: in vivo. The following applies: Sprague-Dawley, rat, iv, 5 mg/kg. This is another data set of the same source.
Description: Volume of distribution at steady state in Sprague-Dawley rat at 5 mg/kg, iv measured after 0.5 to 168 hrs by LC-MS analysis

Activity calls are given as the source filed them. The calls are words filed in the database; no cut-off is given here.

For `C[C@]12CC[C@@H]3c4ccc(O)cc4C[C@@H](CCCCCCCCC[S+]([O-])CCCC(F)(F)C(F)(F)F)[C@H]3[C@@H]1CC[C@@H]2O` (some centres undefined) [FULVESTRANT], the inhibition in vivo at 5 mg/kg with MCF7 [1] stood at 95.4%. Moreover, the Activity result in data set [2], in data set [3], in data set [4], in data set [5] and in data set [6] was “Non-toxic” each time.

One may read the IC50 as the concentration that inhibits the measured activity by half. In the case of `CCN(CC)c1ccc2nc3c4ccccc4/c(=N\CCCCC(=O)NCCCOc4ccc(C(=O)c5c(-c6ccc(O)cc6)sc6cc(O)ccc56)cc4)cc-3sc2c1`, the Activity in the data set on MCF7 [7] is recorded as 4.8%. Moreover, the result in data set [8] and in [9] was Active. Besides, the IC50 was 0.93 µM in the data set with MCF7 [10]; 0.72 µM in the data set with MCF7 [11]; 0.38 µM in the data set with MCF7 [12]; > 100 µM in the data set with MCF7 [13]; 4.67 µM with MCF7 [14]; 0.33 µM in the data set on MCF7 [15].

Turning to `CN(C)c1ccc2nc3ccc(N(C)C)cc3[s+]c2c1` [METHYLENE BLUE ANHYDROUS], the IC50 with MCF7 [10] was > 100 µM; in the data set on MCF7 [11] it was 14.1 µM; in the data set on MCF7 [12], 6.76 µM; in the data set with MCF7 [13], > 100 µM; with MCF7 [14], > 100 µM; in the data set on MCF7 [15] it was 5.53 µM.

`CCN(CC)c1ccc2nc3c4ccccc4/c(=N\CCC(=O)NCCCOc4ccc(C(=O)c5c(-c6ccc(O)cc6)sc6cc(O)ccc56)cc4)cc-3sc2c1`: the Activity in the data set with MCF7 [7] was 4.2%; in [16], “Time-dependent-effect”; in data set [17], “Dose-dependent-effect”. For the same molecule, the result in [8] and in [9] was Active. Besides, the IC50 with MCF7 [10] was 3.85 µM; in the data set on MCF7 [11], 1.78 µM; in the data set with MCF7 [12] it was 1.34 µM; with MCF7 [13], > 100 µM; in the data set on MCF7 [14], 5.53 µM; in the data set on MCF7 [15], 0.63 µM.

As to `O=C(c1ccc(OCCN2CCCCC2)cc1)c1c(-c2ccc(O)cc2)sc2cc(O)ccc12` [RALOXIFENE], half-maximal inhibition in the data set with MCF7 [13] (IC50) required 6.7 µM.

What is called AUC(0-inf) is total exposure, with the tail of the curve extrapolated. High values mean more exposure, low ones less exposure. Usually Cmax stands for the maximum level reached in the sampled fluid or tissue. The term Tmax denotes the time from dosing to the highest level. For orientation: Vd means the apparent volume that relates the amount in the body to the concentration in plasma or blood. A low value points to little distribution into tissue. Take `CC/C(=C(\c1ccccc1)c1ccc(OCCN(C)C)cc1)c1ccccc1` [TAMOXIFEN]: the AUC(0-inf) in “in vivo [18]” came out at 311 ng·h/mL; in “in vivo [21]” it was 295 ng·h/mL. In addition, the results for the peak concentration (Cmax) in the data set “in vivo [19]” and in “in vivo [20]” were 15.9 ng/mL and 11.7 ng/mL, respectively. Moreover, the Tmax in the data set “in vivo [22]” is 16 h. In “in vivo [23]”, the Vd is 221 L/kg.
